Test [1] concerns P. aeruginosa. Description: Fractional inhibitory concentration, checkerboard MIC. Format: cell-based, Pseudomonas aeruginosa.
The test system of a further test is S. aureus. The description is as above. Format: cell-based, Staphylococcus aureus. The conditions noted are these: S. aureus UAMS-1.
A further test deals with P. aeruginosa biofilm. Further details: key: Killing (+) of established biofilms. Conditions: established biofilms; adenylate kinase reporter; Blanchard et al., 2016; cited from earlier work.
A further test concerns S. aureus UAMS-1. Description: Selleck library screen in presence of sub-inhibitory polymyxin B/trimethoprim. Format: cell-based, Staphylococcus aureus. Also noted: key: Growth (+); no growth (−). Conditions: for S. aureus growth, 5 μM: drug 5 μM in presence of 1.2 μg ml^−1 polymyxin B/trimethoprim; for S. aureus growth, 50 μM: drug 50 μM in presence of 1.2 μg ml^−1 polymyxin B/trimethoprim. How it is done:
(§1) To identify agents that potentiate the antimicrobial activity of polymyxin B/trimethoprim we first determined the highest concentration of the polymyxin B/trimethoprim combination that allowed growth of P. aeruginosa strain PAO1 and S. aureus strain UAMS-1.
For Selleck library screening, individual wells of 96-well microtiter plates containing 88 μl of fresh media were inoculated with approximately 10^5 CFUs of P. aeruginosa strain PAO1 or S. aureus UAMS-1. Next, 2 μl of polymyxin B/trimethoprim was added to a final concentration of 0.2 μg ml^−1 or 1.25 μg ml^−1 for PA01 and UAMS-1, respectively. Library members were then added at either 5 μM or 50 μM final concentration. Plates were incubated at 37° C. for 16 hours and hits were identified as wells with no visible growth.
To do so, 10^5 CFUs of S. aureus strain UAMS-1 were inoculated in individual wells of a microtiter plate supplemented with 1.2 μg ml^−1 of polymyxin B/trimethoprim, (0.25×MIC). Library members were added at low (5 μM) or high (50 μM) concentrations and then scored for agents that inhibited growth following overnight incubation. Such agents were expected to represent compounds that display antimicrobial activity on their own and/or that potentiate the antimicrobial activity of polymyxin B/trimethoprim.

Another test deals with P. aeruginosa PAO1. Described as above. Format: cell-based, Pseudomonas aeruginosa. Further details: key: Growth (+); no growth (−). Conditions: for P. aeruginosa growth, 5 μM: drug 5 μM in presence of 0.2 μg ml^−1 polymyxin B/trimethoprim; for P. aeruginosa growth, 50 μM: drug 50 μM in presence of 0.2 μg ml^−1 polymyxin B/trimethoprim. On the procedure:
as §1
For Selleck library screening, individual wells of 96-well microtiter plates containing 88 μl of fresh media were inoculated with approximately 10^5 CFUs of P. aeruginosa strain PAO1 or S. aureus UAMS-1. Next, 2 μl of polymyxin B/trimethoprim was added to a final concentration of 0.2 μg ml^−1 or 1.25 μg ml^−1 for PA01 and UAMS-1, respectively. Library members were then added at either 5 μM or 50 μM final concentration. Plates were incubated at 37° C. for 16 hours and hits were identified as wells with no visible growth. […]

The test system of test [2] is planktonic P. aeruginosa cells. The test is described as follows: Antimicrobial kill curves. Format: cell-based, Pseudomonas aeruginosa. Conditions: 2× MIC, 4 hours post-treatment. How it is done: Overnight cultures of the indicated organism were used to inoculate (1:100 dilution) 100 ml of fresh media and grown to mid-exponential phase. […] Aliquots were taken at 1, 2, 3, 4, and 24 hours, serial diluted and plated for colony forming units.

Test [3] concerns S. aureus UAMS-1 biofilms. The test is described as follows: Biofilm susceptibility. Format: cell-based, Staphylococcus aureus. Conditions: established S. aureus biofilm, 24 hrs treatment, 32×MIC. The source says: Bacterial strains used in these studies include the conventional laboratory strains Pseudomonas aeruginosa PA01 and Staphylococcus aureus UAMS-1, both of which are antibiotic susceptible and capable of forming robust biofilms. See […], Thomas J R, Nelson […]. Role of the accessory gene regulator (agr) in pathogenesis of staphylococcal osteomyelitis. Infection and immunity 1995; 63:3373-3380. Seven clinical keratitis isolates of Pseudomonas aeruginosa, were collected from the Flaum Eye Institute, Rochester N.Y. and 25 clinical isolates of Staphylococcus aureus from geographically distinct regions of the country where purchased from International Health Management Associates (IHMA; Schaumburg, Ill.). For experiments requiring planktonic cultures, the indicated organism was grown overnight in Luria-Bertani broth (LB; […] Biofilms were established by inoculating individual wells of flat-bottom polystyrene plates (Falcon, Corning Life Sciences; Durham, N.C.) with overnight cultures of the indicated organism into 200 ul of fresh LB to a final concentration of 1×10^7 CFU ml^-1. Plates were placed in a 37° C.-humidified incubator for 72 hours to allow static biofilm formation. Non-adherent cells were aspirated and biofilms were washed twice with phosphate-buffered saline prior to each experiment. […] After 24 hrs the remaining media and non-adherent cells were removed, biofilms were suspended in 0.8% NaCl and plated to quantify surviving bacteria. […] Biofilms were treated in increasing increments ranging from 0 to 64×MIC.

The subject of a further test is S. aureus strain UAMS-1. Format: cell-based, Staphylococcus aureus. Conditions: 1×MIC, laser microbial growth monitor over 40 hours. On the procedure: (§2) Spontaneous resistance to the indicated test agent(s) was measured for P. aeruginosa strain PA01 and S. aureus strain UAMS-1 using two liquid culture approaches. […] Growth was measured using the BacterioScan s216Dx laser microbial growth monitor, with optical measurements taken every 3 minutes over 40 hours. Following 40 hours, samples were plated for to measure viable colony forming units and re-tested for drug susceptibility.
(§3) To determine if these colonies represented untreated cells vs. resistant cells, 8 individual colonies from each treatment condition were randomly selected and tested for MICs.
(§4) Using an automated laser microbial growth monitor, the optical profiles of these cultures were measured continuously over time. […] Again 8 colonies were selected at random from each treatment group.

Test [4] has as its system P. aeruginosa strain PA01. Format: cell-based, Pseudomonas aeruginosa. How it is done:
as §2, §3, §4

In test [5] the test system is P. aeruginosa. Description: MIC of clinical P. aeruginosa ocular isolates (antibiotic susceptibility profiles). Format: cell-based, Pseudomonas aeruginosa. Conditions: Pseudomonas aeruginosa, read-out: Minimum Inhibitory Concentration. The source says: A series of genotyping and biological assays were used as a preliminary means to evaluate the clonality of clinical P. aeruginosa isolates collected, as follows. Genomic DNA was purified from each isolate using Qiagen DNeasy kits (Hilden, Germany) and used as a template for polymerase chain reactions to detect the presence of the virulence factors exoS, exoY, exoU, exoT, and perV using previously published primers (Table 1). See Allewelt M, Coleman F T, Grout M, Priebe G P, Pier G B. Acquisition of expression of the Pseudomonas aeruginosa ExoU cytotoxin leads to increased bacterial virulence in a murine model of acute pneumonia and systemic spread. Infection and immunity 2000; 68:3998-4004, Lomholt J A, Poulsen K, Kilian M. Epidemic population structure of Pseudomonas aeruginosa: evidence for a clone that is pathogenic to the eye and that has a distinct combination of virulence factors. Infection and immunity 2001; 69, and Ledbetter E C, Mun J J, Kowbel D, Fleiszig S M. Pathogenic phenotype and genotype of Pseudomonas aeruginosa isolates from spontaneous canine ocular infections. Investigative ophthalmology & visual science 2009; 50. […] See Institute C. Performance Standards for Antimicrobial Susceptibility Testing: Twenty-fifth Informational Supplement. Each isolate's ability to form biofilms was quantified. To do so, wells of a polystyrene plate containing 72-hour established biofilms were washed with 0.8% NaCl to remove non adherent cells and stained with crystal violet. To quantify biofilm staining, plates were washed 3 times with H2O, stain was suspended in 30% glacial acetic acid and the optical density (OD600nm) of each well was determined using an automated plate reader, as previously described. See Jacobs A C, Blanchard C E, Catherman S C, Dunman P M, Murata Y. An ribonuclease T2 family protein modulates Acinetobacter baumannii abiotic surface colonization. PloS one 2014; 9.

Another test relates to MRSA keratitis isolates. The conditions noted are these: MRSA keratitis isolates collected between 1993 and 2012; cited from earlier work.

Take `N[C@@H]1CCCCN(c2c(F)cc3c(=O)c(C(=O)O)cn(C4CC4)c3c2Cl)C1` [Besifloxacin, besifloxacin]: the MIC in combination in the test on P. aeruginosa [1] (P. aeruginosa PAO1, PT combined with besifloxacin) turned out to be 0.78 mg/L; with S. aureus (PT combined with besifloxacin), 0.06 mg/L. For the same molecule, the MIC was found to be 1.56 mg/L in the test on P. aeruginosa [1] (Pseudomonas aeruginosa, PAO1, P. aeruginosa PAO1) and 0.12 mg/L in the test on S. aureus (Staphylococcus aureus). Further, the “P. aeruginosa biofilm AK Signal” value in the test with P. aeruginosa biofilm was “+”. For the same molecule, in the test on S. aureus UAMS-1, the “S. aureus growth, 5 μM” value is “−”. For the same molecule, the “S. aureus growth, 50 μM” value in the test with S. aureus UAMS-1 is “−”. In addition, in the test with P. aeruginosa PAO1, the “P. aeruginosa growth, 5 μM” value is given as “−”. In the test with P. aeruginosa PAO1, the “P. aeruginosa growth, 50 μM” value was “−”.
As to `COc1c(N2C[C@@H]3CCCN[C@@H]3C2)c(F)cc2c(=O)c(C(=O)O)cn(C3CC3)c12` [Moxifloxacin, moxifloxacin], the “reduction in CFU at hour 4” value in [2] came to 5 log. The “reduction in biofilm-associated CFU” value in [3] worked out at 4 log. The “start of outgrowth of treated culture” value with S. aureus strain UAMS-1 was determined as 26 h. Besides, in [4], the “resistance of recovered cells on MIC retest” value stood at 2 ×MIC. In addition, the “time until growth of treated culture” value in test [4] (P. aeruginosa, 1×MIC, laser microbial growth monitor over 40 hours) is recorded as “approximately 22 hours”. In addition, the MIC in the test with P. aeruginosa [5] (P. aeruginosa ocular isolate RW01 (cornea)) was 0.25 mg/L; in the test on P. aeruginosa [5] (P. aeruginosa ocular isolate RW02 (cornea)) it was 0.25 mg/L; with P. aeruginosa [5] (P. aeruginosa ocular isolate RW03 (cornea)) it was 0.25 mg/L; with P. aeruginosa [5] (P. aeruginosa ocular isolate RW04 (conjunctiva)), 0.25 mg/L; with P. aeruginosa [5] (P. aeruginosa ocular isolate RW05 (cornea)), 0.125 mg/L; in the test on P. aeruginosa [5] (P. aeruginosa ocular isolate RW06 (cornea)), 0.5 mg/L. Besides, the MIC in the test on P. aeruginosa [5] (P. aeruginosa ocular isolate RW07 (cornea)) was 0.125 mg/L.
In the case of `C[C@@H]1CN(c2c(F)c(N)c3c(=O)c(C(=O)O)cn(C4CC4)c3c2F)C[C@H](C)N1` [Sparfloxacin, sparfloxacin], in the test with P. aeruginosa biofilm, the “P. aeruginosa biofilm AK Signal” value was “+”. Besides, in the test on S. aureus UAMS-1, the “S. aureus growth, 5 μM” value is recorded as “−” and the “S. aureus growth, 50 μM” value is recorded as “−”. Moreover, in the test with P. aeruginosa PAO1, the “P. aeruginosa growth, 5 μM” value is “−” and the “P. aeruginosa growth, 50 μM” value is given as “−”.
With `COc1c(N2CCNC(C)C2)c(F)cc2c(=O)c(C(=O)O)cn(C3CC3)c12` (centres unmarked) [gatifloxacin], the isolates displaying resistance with MRSA keratitis isolates is on record as ~45.9%.
On to `Cc1cc(NS(=O)(=O)c2ccc(N)cc2)no1` [sulfamethoxazole], for which, in the test on MRSA keratitis isolates, the isolates displaying resistance is given as 5.7%.
With `COc1cc(Cc2cnc(N)nc2N)cc(OC)c1OC` [trimethoprim], the isolates displaying resistance with MRSA keratitis isolates is 11.5%.
